From the supplement of paper PMC10307832

Tests used:
Experiment in all cases: relative viability (nuclei count vs DMSO), 5 days (fraction); higher = more cells survive
[1] = compound: COc1cc2c(Oc3ccc4[nH]c(C)cc4c3F)ncnc2cc1OCCCN1CCCC1 [Cediranib]
In short: (§1)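 In 1536-well plates, lung cancer cell lines rested overnight at 37 °C before five library-drug doses (not always all listed), √10 apart, were pinned onto vehicle-anchored plates. Nuclei were counted with MetaXpress from 4× Hoechst images taken after 5 days without medium change. Viability compares treated-well with vehicle-well nuclei as a median over plates, and plates needed control CV below 25% plus at least one doubling to pass.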

[2] = compound: Nc1ncn([C@H]2C[C@H](O)[C@@H](CO)O2)c(=O)n1 [Decitabine]
In short: as §1

[3] = compound: O=C(C[C@H]1NCCC[C@@H]1O)Cn1cnc2cc(Br)c(Cl)cc2c1=O (racemic) [Halofuginone]
In short: as §1

Cell Line	relative viability ([1]; 0.04 µM)	relative viability ([1]; 0.1265 µM)	relative viability ([1]; 0.4 µM)	relative viability ([1]; 1.265 µM)	relative viability ([1]; 4 µM)	relative viability ([2]; 0.04 µM)	relative viability ([2]; 0.1265 µM)	relative viability ([2]; 0.4 µM)	relative viability ([2]; 1.265 µM)	relative viability ([2]; 4 µM)	relative viability ([3]; 0.001 µM)	relative viability ([3]; 0.003162 µM)	relative viability ([3]; 0.01 µM)	relative viability ([3]; 0.03162 µM)	relative viability ([3]; 0.1 µM)	relative viability ([2]; 2 µM, anchor plate)
IA-LM	0.951	0.948	0.877	0.888	1.08	0.509	0.431	0.272	0.192	0.158	0.995	0.94	0.944	0.862	0.354	–
LC-2-ad	1.04	0.871	0.953	0.955	0.785	0.832	0.839	0.679	0.411	0.501	1.11	0.944	0.932	0.978	0.833	0.786
LCLC-97TM1	1.04	–	0.941	0.949	0.984	0.425	0.538	0.209	0.134	0.15	0.913	0.938	1.01	0.995	0.679	0.238
LCLC-103H	1.07	1.03	0.952	1.06	1.06	1.07	1.05	0.917	0.85	0.805	0.992	1.05	0.994	0.96	0.945	0.736
LK-2	1.03	0.86	0.909	0.965	0.821	0.848	1.03	0.721	0.472	0.484	0.91	0.927	1.03	1.02	0.741	0.302
LOU-NH91	0.967	1.15	0.932	0.878	0.958	0.781	0.928	0.886	0.83	0.848	1.03	0.929	0.98	1.06	0.912	0.808
LU99A	0.982	–	0.976	0.845	0.985	0.923	0.987	0.981	0.868	0.773	0.971	0.955	0.928	0.814	0.821	0.906
LXF-289	1.06	0.778	0.928	1.01	1.03	0.778	0.651	0.441	0.345	0.312	0.98	1.02	0.994	1.01	1	0.387
NCI-H23	0.882	0.75	0.847	0.844	1	0.671	0.462	0.341	0.26	0.293	0.979	0.937	0.868	0.874	0.671	0.324
NCI-H322M	0.929	1.18	0.871	0.819	1.02	0.685	0.821	0.742	0.591	0.587	0.991	0.956	0.883	0.649	0.478	0.699
NCI-H358	0.945	1.13	0.893	0.9	0.899	0.65	0.456	0.407	0.285	0.224	0.994	0.892	0.705	0.341	0.142	0.229
NCI-H441	1.04	0.985	0.884	1.03	1.09	0.406	0.381	0.274	0.229	0.238	1.14	1.12	1.06	0.943	0.596	0.25
NCI-H460	1.02	0.98	0.957	0.984	1.05	0.929	0.938	0.766	0.38	0.265	1.04	1.03	0.973	0.975	0.571	0.495
NCI-H520	1.12	0.747	0.917	0.804	0.865	0.847	0.811	0.508	0.472	0.374	1.01	1.07	1.04	0.91	0.635	0.517
NCI-H522	1.04	0.745	0.947	0.961	1.02	0.949	0.938	0.624	0.627	0.611	1.06	0.924	1.04	1.01	0.769	0.686
NCI-H596	1.06	0.959	0.935	0.907	1.1	0.894	0.871	0.607	0.799	0.692	1.01	0.965	1.13	0.882	0.549	1.04
NCI-H647	1.06	0.911	0.831	0.895	1.01	0.732	0.817	0.451	0.249	0.233	1.11	0.971	0.905	0.815	0.599	0.403
NCI-H650	0.892	0.787	0.961	0.87	0.996	0.717	0.596	0.363	0.325	0.332	1.04	1.01	0.956	0.881	0.719	0.31
NCI-H661	0.988	0.98	0.974	0.957	1.1	0.928	0.944	0.764	0.59	0.557	1.01	0.962	0.956	0.907	0.85	0.565
NCI-H727	0.631	0.824	0.906	0.935	0.989	0.733	0.658	0.662	0.579	0.553	1.01	0.88	0.788	0.848	0.65	0.903
NCI-H838	1.02	0.965	0.916	0.827	1.06	0.687	0.59	0.434	0.461	0.314	1	1	0.945	0.765	0.409	0.466
NCI-H1299	1.02	1.02	0.99	1.03	1.09	1.03	1.02	1.02	0.943	0.874	1.06	1.06	0.999	0.979	0.886	–
